One series concerns Pseudomonas aeruginosa. Format: in vivo, dog.
Series [1] is classed as in vivo, dog. The following applies: 7 days, AST 24 hours after last dose.
Series [2] is classed as in vivo, dog.
The next series has as its system tubulin. Format: cell-based, dog.
The format of series [3] is in vivo, dog. As to conditions: 15 mg/kg PO q12 h for 2 weeks.
Series [4] is classed as in vivo, dog. As to conditions: mean ± SD; 18 of 20 dogs; single 1 mg/kg oral aspirin; LC‐MS.
In series [5] the test system is platelet function. Format: in vivo, dog.
A further series deals with platelet aggregation. The series is classed as in vivo, dog. As to conditions: 1 mg/kg orally; 20, 40 and 180 minutes.
Series [6] deals with platelet function. The series is classed as in vivo, dog. As to conditions: day 7; HM5 analyzer.
In series [7] the test system is platelet function. Format: in vivo, dog. As to conditions: Day 7.
Series [8] relates to platelet function. The series is classed as in vivo, dog. The following applies: day 7.
Series [9] concerns platelet function. Format: in vivo, dog. As to conditions: day 7. The source holds these as a separate data set.
Test in series [10]: not given
This is another data set of the same source.

Series [11] has as its system Anaplasma phagocytophilum. The series is classed as in vivo, dog.
Series [12] addresses Angiotensin converting enzyme (ACE) (Canis lupus familiaris, UniProt A0A8I3S3I6). Format: in vivo, dog. The following applies: enalapril 0.5 mg/kg orally twice a day, 14–21 days.
The format of series [13] is in vivo, dog. This is another data set of the same source.
The test system of series [14] is hypothalamic‐pituitary‐thyroid axis. Format: in vivo, dog. As to conditions: mean dose 0.024 mg/kg every 24 hours for 8 or 16 weeks.
Series [15] is classed as in vivo, dog. The source holds these as a separate data set.
Series [16] is classed as in vivo, cat.
The format of series [17] is in vivo, dog. This is another data set of the same source.
Test in series [18]: not given
This is another data set of the same source.

Series [19] is classed as in vivo, dog. The source holds these as a separate data set.
[20] abbreviates: 8.5 mg/kg orally every 12 hours.

Angiotensin converting enzyme (ACE), sequence (A0A8I3S3I6 31-1241 limits assumed): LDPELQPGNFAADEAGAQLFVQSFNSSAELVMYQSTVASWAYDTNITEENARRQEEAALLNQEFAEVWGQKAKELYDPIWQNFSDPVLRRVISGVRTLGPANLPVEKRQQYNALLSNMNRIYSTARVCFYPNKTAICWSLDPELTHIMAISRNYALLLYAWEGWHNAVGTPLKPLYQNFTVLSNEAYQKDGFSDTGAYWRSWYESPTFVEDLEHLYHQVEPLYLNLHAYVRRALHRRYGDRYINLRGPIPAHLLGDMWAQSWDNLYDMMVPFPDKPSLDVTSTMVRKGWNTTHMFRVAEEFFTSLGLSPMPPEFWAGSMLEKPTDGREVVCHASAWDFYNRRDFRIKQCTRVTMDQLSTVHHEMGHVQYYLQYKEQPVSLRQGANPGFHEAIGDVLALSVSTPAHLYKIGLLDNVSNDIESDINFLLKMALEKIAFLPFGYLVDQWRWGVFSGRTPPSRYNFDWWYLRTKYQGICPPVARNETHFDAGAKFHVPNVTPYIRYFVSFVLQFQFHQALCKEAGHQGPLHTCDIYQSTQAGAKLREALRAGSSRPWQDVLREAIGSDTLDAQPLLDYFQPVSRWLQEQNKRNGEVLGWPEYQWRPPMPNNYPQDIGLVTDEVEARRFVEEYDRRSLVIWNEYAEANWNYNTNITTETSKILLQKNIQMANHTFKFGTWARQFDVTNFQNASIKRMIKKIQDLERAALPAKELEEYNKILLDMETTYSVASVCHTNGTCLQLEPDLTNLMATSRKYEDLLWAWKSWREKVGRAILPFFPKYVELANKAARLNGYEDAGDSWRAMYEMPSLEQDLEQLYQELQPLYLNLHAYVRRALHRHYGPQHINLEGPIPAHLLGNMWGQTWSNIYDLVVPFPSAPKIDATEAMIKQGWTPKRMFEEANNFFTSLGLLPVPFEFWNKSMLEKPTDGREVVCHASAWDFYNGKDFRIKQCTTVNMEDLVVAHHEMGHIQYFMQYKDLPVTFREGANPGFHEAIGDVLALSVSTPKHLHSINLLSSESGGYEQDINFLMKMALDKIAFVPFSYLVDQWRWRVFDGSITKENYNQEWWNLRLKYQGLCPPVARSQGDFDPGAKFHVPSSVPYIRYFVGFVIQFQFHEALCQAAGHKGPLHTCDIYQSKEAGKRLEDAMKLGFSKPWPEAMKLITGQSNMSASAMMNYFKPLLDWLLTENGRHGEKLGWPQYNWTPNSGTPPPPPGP

Regarding `CC[C@H]1OC(=O)[C@H](C)[C@@H](O[C@H]2C[C@@](C)(OC)[C@@H](O)[C@H](C)O2)[C@H](C)[C@@H](O[C@@H]2O[C@H](C)C[C@H](N(C)C)[C@H]2O)[C@](C)(O)C[C@@H](C)CN(C)[C@H](C)[C@@H](O)[C@]1(C)O` [Azithromycin], the “concentration of BHL, HHL and OdDHL in ear canal samples” value in the series with Pseudomonas aeruginosa (1 mL of 50 µg/mL topical SID for 56 days, P ≥ 0.2) is given as “not affected”. Besides, the “clinical signs and duration of the disease” value with Pseudomonas aeruginosa (P = 0.5) was “no effect”.

Regarding `CC(=O)OCC(=O)[C@@]1(O)CC[C@H]2[C@@H]3CCC4=CC(=O)CC[C@]4(C)[C@H]3C(=O)C[C@@]21C` [CA, cortisone acetate], in [1], the “mean (±SEM) post AST serum cortisol, 25 mg” value is recorded as 335 ± 13 nmol/L; the “mean (±SEM) post AST serum cortisol, 37.5 mg” value is 326 ± 13 nmol/L; the “mean (±SEM) post AST serum cortisol, 50 mg” value is 308 ± 13 nmol/L. The “mean (±SEM) post AST serum cortisol, 12.5 mg” value in series [1] (14 dogs, placebo 365 ± 13) is 347 ± 13 nmol/L.

For `C[C@]12CCC(=O)C=C1CC[C@@H]1[C@@H]2[C@@H](O)C[C@@]2(C)[C@H]1CC[C@]2(O)C(=O)CO` [Hydrocortisone, hydrocortisone], in series [2] (setting [20]), the “serum adiponectin concentrations on days 1, 3, 7, 30, 60, and 90 versus day 0” value is on record as “decreased”; the “serum leptin concentrations on days 1, 3, 7, 30, 60, and 90 versus day 0” value is given as “significantly increased”. For the same compound, the “abdominal visceral fat mass on days 30, 60, and 90 versus day 0” value in series [2] (8.5 mg/kg orally every 12 hours for 90 days, six dogs, CT) is “increased abdominal visceral fat mass”.

For `COC(=O)Nc1nc2ccc(C(=O)c3ccccc3)cc2[nH]1` [MBZ, mebendazole], the “tubulin depolymerization versus untreated control” value with tubulin was “increased depolymerization of tubulin”.

For the compound `Cc1ncc([N+](=O)[O-])n1CCO` [Metronidazole, metronidazole], the “altered fecal metabolites, out of 469 measured” value in [3] came to 98. In addition, the “fecal secondary bile acids” value in series [3] (P < 0.001) is given as “reduction in secondary bile acids”.

Take `O=C(O)c1ccccc1O` [SA, salicylic acid]: in series [4], the “maximum plasma concentrations (Cmax)” value was found to be 21 ± 5 µM.

For `CC(=O)Oc1ccccc1C(=O)O` [aspirin, acetylsalicylic acid], in the series with platelet function [5] (0.5 mg/kg, q24 h PO, Day 7 versus Day 0), the “mean decrease in maximum amplitude, Dose A” value worked out at 3.8%. In addition, the “mean decrease in maximum amplitude, Dose B” value in the series with platelet function [5] (1 mg/kg, q24 h PO, Day 7) came out at 41.3%. The “mean decrease in maximum amplitude, Dose C” value in the series with platelet function [5] (2 mg/kg, q24 h PO, Day 7) was determined as 81.3%. The “mean decrease in maximum amplitude, Dose D” value in the series with platelet function [5] (4 mg/kg, q24 h PO, Day 7) turned out to be 75.9%. Besides, the “mean decrease in maximum amplitude, Dose E” value in the series with platelet function [5] (10 mg/kg, q12 h PO, Day 7) came to 87.8%. Moreover, in the series with platelet aggregation, the “inhibition of platelet aggregation after single dose” value is listed as “did not cause measureable inhibition of platelet aggregation”. Besides, the “PW % aggregation with AA, post treatment mean” value in the series with platelet function [6] turned out to be 7%. Besides, the “dogs with PFA‐100 closure time >300 seconds, Dose A” value with platelet function [7] (0.5 mg/kg, q24 h) is on record as 0%. Also, the “dogs with PFA‐100 closure time >300 seconds, Dose B” value with platelet function [7] (1 mg/kg, q24 h) is reported as 25%. The “dogs with PFA‐100 closure time >300 seconds, Dose C” value in the series on platelet function [7] (2 mg/kg, q24 h) is 62.5%. Further, in the series with platelet function [7] (4 mg/kg, q24 h), the “dogs with PFA‐100 closure time >300 seconds, Dose D” value was 87.5%. For the same compound, in the series on platelet function [7] (10 mg/kg, q12 h), the “dogs with PFA‐100 closure time >300 seconds, Dose E” value was found to be 87.5%. For the same compound, the “maximum plasma concentrations (Cmax)” value in series [4] was determined as 0.23 ± 0.21 µM.

`COC(=O)[C@H](c1ccccc1Cl)N1CCc2sccc2C1` [clopidogrel]: in the series on platelet function [8], the “MP AUC with AA, post treatment mean” value worked out at 19 U and the “MP AUC with ADP, post treatment mean” value worked out at 13 U. In addition, in the series with platelet function [6], the “PW % aggregation with AA, post treatment mean” value is given as 4% and the “PW % aggregation with ADP, post treatment mean” value turned out to be 9%. Besides, in the series on platelet function [9], the “PFA closure time, COL‐ADP cartridge, post treatment mean” value came out at 185 s and the “PFA closure time, P2Y cartridge, post treatment mean” value is above 300 s.

For the compound `O=P1(N(CCCl)CCCl)NCCCO1` (stereo not drawn) [cyclophosphamide], for the setting “10 mg cyclophosphamide daily/every other day”, the “dogs with stable disease or partial/complete remission >100 days” value is listed as 74%. Besides, the “dogs that developed haematuria” value (10 mg cyclophosphamide daily/every other day, three dogs) amounted to 8.6%. Also, where the note is “13 of 35 dogs”, the “dogs still alive over one year later” value was found to be 37%. Also, for the setting “20 of 35 dogs”, the “dogs with DFI >6 months” value stood at 57%. The “median survival time (MST), intermediate/high grade sarcomas” value (n = 18) is reported as 362 days.

Turning to `COc1cccc2c1C(=O)c1c(O)c3c(c(O)c1C2=O)C[C@@](O)(C(=O)CO)C[C@@H]3O[C@H]1C[C@H](N)[C@H](O)[C@H](C)O1` [doxorubicin], the “MTD of doxorubicin in the combination” value in series [10] (IV every 21 days with toceranib 2.75 mg/kg PO every other day, 21 dogs) is reported as 25 mg/m2. For the same compound, the “dose limiting toxicity (DLT)” value in series [10] (dog, in vivo) is reported as “neutropenia”.

Consider `C[C@H]1c2cccc(O)c2C(=O)C2=C(O)[C@]3(O)C(=O)C(C(N)=O)=C(O)[C@@H](N(C)C)[C@@H]3[C@@H](O)[C@@H]21` [doxycycline], for which the “AP antibodies on Week 48 in Group 1” value in series [11] (doxycycline 5 mg/kg PO twice daily for 4 weeks from Week 20) was “The only dogs that became AP seronegative by Week 48 were administered doxycycline”.

Take `CCOC(=O)[C@H](CCc1ccccc1)N[C@@H](C)C(=O)N1CCC[C@H]1C(=O)O` [enalapril]: the “median post therapy ACE activity, dogs homozygous for DNA variant” value in [12] (baseline 18.05 U/L) was below 5.0 U/L. Moreover, the “median post therapy ACE activity, wildtype dogs” value in [12] (baseline 27.4 U/L) is recorded as below 5.0 U/L.

Consider `Cc1oncc1C(=O)Nc1ccc(C(F)(F)F)cc1` [leflunomide], for which the “increased liver enzyme activities” value in series [13] (1 of 16) came to 6.3%. In series [13] (2 of 31), this compound registered a thrombocytopenia of 6.5%. The same compound had a lethargy in series [13] (2 of 92) of 2.2%. Further, the suspect blood dyscrasia in series [13] (3 of 92) came to 3.3%. For the same compound, the diarrhea in series [13] (3 of 92, mean dose 1.79 ± 0.8 mg/kg/day) was 3.3%. The “discontinued due to possible adverse events” value in [13] (6 dogs) was determined as 6.5%. In addition, in [13] (12 of 17 dogs (IMPA, IMTP, CH)), the “dogs with apparent positive response” value came out at 70.5%.

For the compound `N[C@@H](Cc1cc(I)c(Oc2cc(I)c(O)c(I)c2)c(I)c1)C(=O)O` [levothyroxine], the “mean serum TSH during administration compared to baseline” value in [14] was “significantly lower”. In addition, the “mean serum T4 and fT4 during administration compared to baseline” value in series [14] (28 dogs) was “significantly higher”.

On to `CCOc1cc(N)c(Cl)cc1C(=O)NCC1CN(Cc2ccc(F)cc2)CCO1` (stereo not drawn) [mosapride], for which the “median increase of plasma motilin after feeding, Group N” value in [15] (feeding only 65.0) is -1.6 pg/mL. The “median increase of plasma motilin after feeding, Group S” value in series [15] (feeding only 173.3) is on record as 37.0 pg/mL.

On to `COc1ccc2[nH]c([S+]([O-])Cc3ncc(C)c(OC)c3C)nc2c1` (stereo not drawn) [omeprazole], for which, in [16] (0.83–1.6 mg/kg PO q12 h for 60 days, 6 cats, P < 0.002), the “serum gastrin in comparison to placebo” value is “significantly higher”. Moreover, in series [16] (two cats with intragastric pH capsules), the “intragastric pH after cessation” value is recorded as “Evidence of gastric hyperacidity”.

Turning to `C[C@]12C=CC(=O)C=C1CC[C@@H]1[C@@H]2[C@@H](O)C[C@@]2(C)[C@H]1CC[C@]2(O)C(=O)CO` [prednisolone], in [11] (prednisolone 2 mg/kg PO daily for 2 weeks from Week 24), the clinical abnormalities entry is on record as “Clinical abnormalities were not detected”.

Consider `Cc1[nH]c(/C=C2\C(=O)Nc3ccc(F)cc32)c(C)c1C(=O)NCCN1CCCC1` [toceranib phosphate], for which the “median time to development of proteinuria” value in series [17] (dogs that developed proteinuria) was 47 days. Also, the “median UPC in dogs that developed proteinuria” value in series [17] (urine protein creatinine ratio) stood at 0.7.

Turning to `C[C@]12CC[C@H]3[C@@H](CC[C@@]45O[C@@H]4C(O)=C(C#N)C[C@]35C)[C@@H]1CC[C@@H]2O` [treatment A, trilostane], the “dogs with complete hair regrowth” value in [18] (after three months of treatment (stated for treatment A)) stood at 50%. In addition, the “dogs with partial regrowth” value in series [18] (dog, in vivo) amounted to 37.5%.

On to `COc1ccc2[nH]cc(CCNC(C)=O)c2c1` [treatment C, melatonin], for which the tolerability entry in series [18] (one of the two dogs) is given as “had to be withdrawn due to emesis”.

For cyanocobalamin [cbl], the “median serum cbl after 28 days, PO” value in series [19] (daily cyanocobalamin tablets ¼ to 1 mg by weight, n = 22, 245 at inclusion) was found to be 970 ng/L. The “mean increase in serum cbl at 28 days to baseline, PE” value in series [19] (dog, in vivo) was 1465 ± 745 ng/L. Moreover, the “mean increase in serum cbl at 28 days to baseline, PO” value in [19] (dog, in vivo, po) was determined as 888 ± 449 ng/L. Further, in series [19] (n = 13), the “mean serum cbl after 3 months, PE” value is 803 ± 275 ng/L. Moreover, in series [19] (n = 19, 221 ± 43 at inclusion), the “mean serum cbl after 28 days, PE” value worked out at 1686 ± 757 ng/L. Further, the “median serum cbl after 3 months, PO” value in [19] (n = 20) is 1334 ng/L. The “median increase in serum cbl after 3 months, PE” value in series [19] (range 38–997) was 608 ng/L. Also, in [19] (range 538–3663), the “median increase in serum cbl after 3 months, PO” value is reported as 970 ng/L.

Values taken from paper PMC5260423 (Journal of Veterinary Internal Medicine, 2016).
